Structures can show the parent of a compound that is named as a salt.
These compounds were tested against Factor D (Homo sapiens (Human), UniProt P00746) (assay: biochemical). Conditions: read-out: IC50.
Format: biochemical

Chain of Factor D (P00746 26-253): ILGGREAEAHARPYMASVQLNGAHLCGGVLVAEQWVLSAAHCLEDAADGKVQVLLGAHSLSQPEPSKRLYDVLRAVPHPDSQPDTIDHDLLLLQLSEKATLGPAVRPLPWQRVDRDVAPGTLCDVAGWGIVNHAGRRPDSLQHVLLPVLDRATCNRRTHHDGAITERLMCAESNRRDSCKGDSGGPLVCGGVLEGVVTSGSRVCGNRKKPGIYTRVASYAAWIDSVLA

Row | SMILES | IC50
1 | CO[C@H]1[C@@H](C(=O)NCc2cccc(Cl)c2F)N(C(=O)Cn2nc(C(N)=O)c3cc(C)ncc32)C[C@@H]1F [Example 661, 1-{2-[(2S,3S,4S)-2-(3-Chloro-2-fluoro-benzylcarbamoyl)-4-fluoro-3-methoxy-pyrrolidin-1-yl]-2-oxo-ethyl}-5-methyl-1H-pyrazolo[3,4-c]pyridine-3-carboxylic acid amide] | 10 nM
2 | CO[C@H]1[C@@H](C(=O)NCc2cccc(Cl)c2F)N(C(=O)Cn2nc(C(N)=O)c3ccncc32)C[C@@H]1F [Example 662, 1-{2-[(2S,3S,4S)-2-(3-Chloro-2-fluoro-benzylcarbamoyl)-4-fluoro-3-methoxy-pyrrolidin-1-yl]-2-oxo-ethyl}-1H-pyrazolo[3,4-c]pyridine-3-carboxylic acid amide] | 13 nM
3 | CO[C@H]1[C@@H](C(=O)NCc2cccc(Cl)c2F)N(C(=O)Cn2nc(C(N)=O)c3cnccc32)C[C@@H]1F [Example 663, 1-{2-[(2S,3S,4S)-2-(3-Chloro-2-fluoro-benzylcarbamoyl)-4-fluoro-3-methoxy-pyrrolidin-1-yl]-2-oxo-ethyl}-1H-pyrazolo[4,3-c]pyridine-3-carboxylic acid amide] | 36 nM
4 | CO[C@H]1[C@@H](C(=O)N[C@H](C)c2cccc(Cl)c2F)N(C(=O)Cn2nc(C(N)=O)c3ccncc32)C[C@@H]1F [Example 664, 1-(2-{(2S,3S,4S)-2-[(R)-1-(3-Chloro-2-fluoro-phenyl)-ethylcarbamoyl]-4-fluoro-3-methoxy-pyrrolidin-1-yl}-2-oxo-ethyl)-1H-pyrazolo[3,4-c]pyridine-3-carboxylic acid amide] | 24 nM
5 | CO[C@H]1[C@@H](C(=O)N[C@H](C)c2cccc(Cl)c2F)N(C(=O)Cn2nc(C(N)=O)c3cnccc32)C[C@@H]1F [Example 665, 1-(2-{(2S,3S,4S)-2-[(R)-1-(3-Chloro-2-fluoro-phenyl)-ethylcarbamoyl]-4-fluoro-3-methoxy-pyrrolidin-1-yl}-2-oxo-ethyl)-1H-pyrazolo[4,3-c]pyridine-3-carboxylic acid amide] | 58 nM
6 | CC(=O)c1cn(CC(=O)N2[C@@H]3C[C@@H]3C[C@H]2C(=O)NCc2cccc(Cl)c2F)c2ccc(OCc3ncccn3)cc12 [Example 666, (1R,3S,5R)-2-{2-[3-Acetyl-5-(pyrimidin-2-ylmethoxy)-indol-1-yl]-acetyl}-2-aza-bicyclo [3.1.0]hexane-3-carboxylic acid 3-chloro-2-fluoro-benzylamide] | 6 nM
7 | CCO[C@H]1[C@@H](C(=O)NCc2cccc(Cl)c2F)N(C(=O)Cn2cc(C(C)=O)c3cc(C)ncc32)C[C@@H]1F [Example 667, (2S,3S,4S)-1-[2-(3-Acetyl-5-methyl-pyrrolo[2,3-c]pyridin-1-yl)-acetyl]-3-ethoxy-4-fluoro-pyrrolidine-2-carboxylic acid 3-chloro-2-fluoro-benzylamide formate] | 16 nM
8 | NC(=O)c1nn(CC(=O)N2[C@@H]3C[C@@H]3C[C@H]2C(=O)Nc2cccc(Br)c2F)c2cnccc12 [Example 668, 1-{2-[(1R,3S,5R)-3-(3-Bromo-2-fluoro-phenylcarbamoyl)-2-aza-bicyclo[3.1.0]hex-2-yl]-2-oxo-ethyl}-1H-pyrazolo[3,4-c]pyridine-3-carboxylic acid amide] | 19 nM
9 | Cc1cc2c(C(N)=O)nn(CC(=O)N3[C@@H]4C[C@@H]4C[C@H]3C(=O)Nc3cccc(Br)c3F)c2cn1 [Example 670, 1-{2-[(1R,3S,5R)-3-(3-Bromo-2-fluoro-phenylcarbamoyl)-2-aza-bicyclo[3.l.0]hex-2-yl]-2-oxo-ethyl}-5-methyl-1H-pyrazolo[3,4-c]pyridine-3-carboxylic acid amide] | 90 nM
10 | CCc1cc2c(C(N)=O)nn(CC(=O)N3[C@@H]4C[C@@H]4C[C@H]3C(=O)Nc3cccc(Br)c3F)c2cn1 [Example 671, 1-{2-[(1R,3S,5R)-3-(3-Bromo-2-fluoro-phenylcarbamoyl)-2-aza-bicyclo[3.1.0]hex-2-yl]-2-oxo-ethyl}-5-ethyl-1H-pyrazolo[3,4-c]pyridine-3-carboxylic acid amide] | 77 nM
11 | CC(C)c1cccc(NC(=O)[C@@H]2C[C@H]3C[C@H]3N2C(=O)Cn2nc(C(N)=O)c3ccncc32)n1 [Example 673, 1-{2-[(1R,3S,5R)-3-(6-Isopropyl-pyridin-2-ylcarbamoyl)-2-aza-bicyclo [3.1.0]hex-2-yl]-2-oxo-ethyl}-1H-pyrazolo[3,4-c]pyridine-3-carboxylic acid amide] | 157 nM
12 | NC(=O)c1nn(CC(=O)N2[C@@H]3C[C@@H]3C[C@H]2C(=O)Nc2cccc(C3CC3)c2F)c2ccccc12 [Example 674, 1-{2-[(1R,3S,5R)-3-(3-Cyclopropyl-2-fluoro-phenylcarbamoyl)-2-aza-bicyclo[3.2.1]hex-2-yl]-2-oxo-ethyl}-1H-indazole-3-carboxylic acid amide] | 75 nM
13 | C[C@@]12C[C@@H](C(=O)NCc3cccc(Cl)c3F)N(C(=O)Cn3nc(C(N)=O)c4ccncc43)[C@@H]1C2 [Example 675, 1-{2-[(1R,3S,5R)-3-(3-Chloro-2-fluoro-benzylcarbamoyl)-5-methyl-2-aza-bicyclo [3.1.0]hex-2-yl]-2-oxo-ethyl}-1H-pyrazolo[3,4-c]pyridine-3-carboxylic acid amide] | 23 nM
14 | CC(=O)c1nn(CC(=O)N2[C@@H]3C[C@@H]3C[C@H]2C(=O)N[C@H](CO)c2cccc(Cl)c2F)c2ncccc12 [Example 677, (1R,3S,5R)-2-[2-(3-Acetyl-pyrazolo[3,4-b]pyridin-1-yl)-acetyl]-2-aza-bicyclo [3.1.0]hexane-3-carboxylic acid [(S)-1-(3-chloro-2-fluoro-phenyl)-2-hydroxy-ethyl]-amide] | 10 nM
15 | COC[C@@H](NC(=O)[C@@H]1C[C@H]2C[C@H]2N1C(=O)Cc1nc(C(C)=O)c2ccccn12)c1cccc(Cl)c1F [Example 678, (1R,3S,5R)-2-[2-(1-Acetyl-imidazo[1,5-a]pyridin-3-yl)-acetyl]-2-aza-bicyclo [3.1.0]hexane-3-carboxylic acid [(S)-1-(3-chloro-2-fluoro-phenyl)-2-methoxy-ethyl]-amide] | 40 nM
16 | CC(=O)c1nc(CC(=O)N2[C@@H]3C[C@@H]3C[C@H]2C(=O)N[C@H](CC#N)c2cccc(Cl)c2F)n2ccccc12 [Example 679, (1R,3S,5R)-2-[2-(1-Acetyl-imidazo[1,5-a]pyridin-3-yl)-acetyl]-2-aza-bicyclo[3.1.0]hexane-3-carboxylic acid [(R)-1-(3-chloro-2-fluoro-phenyl)-2-cyano-ethyl]-amide] | 134 nM
17 | CO[C@H]1[C@@H](C(=O)NCc2cccc(Cl)c2F)N(C(=O)Cn2nc(C(C)=O)c3ccccc32)C[C@@H]1F [Example 680, (2S,3S,4S)-1-[2-(3-Acetyl-indazol-1-yl)-acetyl]-4-fluoro-3-methoxy-pyrrolidine-2-carboxylic acid 3-chloro-2-fluoro-benzylamide] | 16 nM
18 | CO[C@H]1[C@@H](C(=O)NCc2cccc(Cl)c2F)N(C(=O)Cn2cc(C(C)=O)c3ccncc32)C[C@@H]1F [Example 681, (2S,3S,4S)-1-[2-(3-Acetyl-pyrrolo[2,3-c]pyridin-1-yl)-acetyl]-4-fluoro-3-methoxy-pyrrolidine-2-carboxylic acid 3-chloro-2-fluoro-benzylamide] | 19 nM
